Measurements as given in patent US20100331305A1, “OXO-HETEROCYCLE FUSED PYRIMIDINE COMPOUNDS, COMPOSITIONS AND METHODS OF USE” (Genentech, Inc., priority 2009, published 2010).

How the values were obtained:
[1] = target: mTOR enzyme (mTOR(1360-2549)+GBL) (Homo sapiens, UniProt P42345); assay: In vitro mTOR kinase assay (TR-FRET); type: biochemical; conditions: 0.25 nM mTOR+GBL, 8 uM ATP; values tied to compounds by order of Table 1; 'x or y' = two alternative values for separated diastereomers of unassigned stereochemistry; read-out: activity level (Ki) in the mTOR kinase assay
Sequence of mTOR enzyme (mTOR(1360-2549)+GBL) (P42345 1360-2549, species assumed): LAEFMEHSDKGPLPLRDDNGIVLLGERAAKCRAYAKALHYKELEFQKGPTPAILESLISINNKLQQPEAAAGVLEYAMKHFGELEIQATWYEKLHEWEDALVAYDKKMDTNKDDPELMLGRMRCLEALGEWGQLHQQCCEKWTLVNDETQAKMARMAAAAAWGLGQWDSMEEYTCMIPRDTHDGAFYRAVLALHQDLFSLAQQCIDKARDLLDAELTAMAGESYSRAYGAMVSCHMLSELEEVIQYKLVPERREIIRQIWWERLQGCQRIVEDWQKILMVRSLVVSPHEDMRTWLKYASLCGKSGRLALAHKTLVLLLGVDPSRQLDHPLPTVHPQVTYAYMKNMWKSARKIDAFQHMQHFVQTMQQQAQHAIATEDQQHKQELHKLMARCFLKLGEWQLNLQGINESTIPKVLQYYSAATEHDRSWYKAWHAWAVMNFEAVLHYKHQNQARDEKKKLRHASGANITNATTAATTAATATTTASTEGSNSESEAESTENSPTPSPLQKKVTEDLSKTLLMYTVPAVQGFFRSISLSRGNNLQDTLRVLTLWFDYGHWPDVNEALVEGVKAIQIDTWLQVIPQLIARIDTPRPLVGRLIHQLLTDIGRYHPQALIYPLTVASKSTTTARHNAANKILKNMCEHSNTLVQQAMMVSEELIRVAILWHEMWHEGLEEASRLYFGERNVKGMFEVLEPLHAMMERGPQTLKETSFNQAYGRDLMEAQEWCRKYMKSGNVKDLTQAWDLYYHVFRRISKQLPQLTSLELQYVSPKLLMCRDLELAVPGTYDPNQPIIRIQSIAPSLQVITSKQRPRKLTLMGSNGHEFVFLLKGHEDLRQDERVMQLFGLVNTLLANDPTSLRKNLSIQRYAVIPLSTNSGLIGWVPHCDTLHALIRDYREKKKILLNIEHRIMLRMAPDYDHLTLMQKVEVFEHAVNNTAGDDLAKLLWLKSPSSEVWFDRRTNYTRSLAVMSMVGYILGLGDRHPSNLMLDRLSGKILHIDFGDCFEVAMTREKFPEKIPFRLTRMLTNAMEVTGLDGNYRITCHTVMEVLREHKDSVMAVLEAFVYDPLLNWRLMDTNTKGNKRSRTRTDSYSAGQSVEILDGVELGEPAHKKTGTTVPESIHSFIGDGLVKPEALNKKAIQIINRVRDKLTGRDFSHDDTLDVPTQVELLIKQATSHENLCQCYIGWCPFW
Sequence of mTOR enzyme (mTOR(1360-2549)+GBL) (Q9BVC4 whole entry partner, species assumed): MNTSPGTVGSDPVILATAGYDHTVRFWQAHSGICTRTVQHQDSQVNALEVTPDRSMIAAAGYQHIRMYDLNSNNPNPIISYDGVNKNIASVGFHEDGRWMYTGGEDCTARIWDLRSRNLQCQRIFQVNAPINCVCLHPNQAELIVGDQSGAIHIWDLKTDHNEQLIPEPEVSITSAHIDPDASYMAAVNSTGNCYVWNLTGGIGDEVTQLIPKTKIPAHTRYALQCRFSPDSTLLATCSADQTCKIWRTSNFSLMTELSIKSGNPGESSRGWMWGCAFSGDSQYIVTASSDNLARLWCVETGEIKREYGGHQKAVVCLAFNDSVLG
Description: a. In Vitro mTOR Kinase Assay
The reaction is stopped by an addition of a Terbium-labeled phospho-specific antibody, e.g., Tb-labeled anti-p4E-BP1 T37/T46, (Invitrogen, product #PR8835A), EDTA, and TR-FRET buffer solution (Invitrogen, Product #PR3756B). Product formation is detected by way of time-resolved fluorescence resonance energy transfer (TR-FRET), which occurs when the phosphorylated substrate and labeled antibody are in close proximity due to phospho-specific binding. Enzymatic activity is measured as an increase in TR-FRET signal using a Perkin Elmer Envision plate reader.
Compound activity is tested in 10 point dose curves starting at the highest final concentration of 10 uM. They are serially diluted in 100% DMSO prior to further dilution with assay buffer. […] 8 μL of solution containing 2 nM Tb-anti-p4E-BP1 antibody & 10 mM EDTA diluted TR-FRET buffer is then added and incubated for 30 minutes to stop the reaction. The plate is scanned with the Envision plate reader. Ki values are calculated in Assay Explorer using the Morrison ATP-competitive tight binding equation for Ki apparent determination.

PC3 cells = assay: In vitro cell proliferation assay; type: cell-based, human; conditions: Homo sapiens, PC-3, with PC3 cells; values tied to compounds by order of Table 1
Method: c. In Vitro Cell Proliferation Assay Efficacy of Formula I compounds were measured by a cell proliferation assay employing the following protocol: 1. An aliquot of 20 μl of cell culture containing about 10^3 cells (PC3 or MDAMB361.1) in medium was deposited in each well of a 384-well, opaque-walled plate. 2. Control wells were prepared containing medium and without cells; Cells were allowed to settle overnight. 3. The compound was added to the experimental wells and incubated for 3 days. 4. The plates were equilibrated to room temperature for approximately 30 minutes. 5. A volume of CellTiter-Glo Reagent equal to the volume of cell culture medium present in each well was added. […] The contents were mixed for 2 minutes on an orbital shaker to induce cell lysis. 7. The plate was incubated at room temperature for 20 minutes to stabilize the luminescence signal. 8. Luminescence was recorded and reported in graphs as RLU=relative luminescence units. Alternatively, cells were seeded at optimal density in a 96 well plate and incubated for 4 days in the presence of test compound. Alamar BlueTM was subsequently added to the assay medium, and cells were incubated for 6 h before reading at 544 nm excitation, 590 nm emission. EC50 values were calculated using a sigmoidal dose response curve fit.

Row | Compound | Ki [1] | EC50 (PC3 cells)
1 | CCNC(=O)Nc1ccc(-c2nc3c(c(N4CCOC[C@@H]4CC)n2)CCCO3)cc1 [Example 2, (S)-1-ethyl-3-(4-(4-(3-ethylmorpholino)-6,7-dihydro-5H-pyrano[2,3-d]pyrimidin-2-yl)phenyl)urea] | 1 nM | 144 nM
2 | CCNC(=O)Nc1ccc(-c2nc3c(c(N4C[C@@H]5C[C@H]4CO5)n2)CCCO3)cc1 [Example 3, 1-(4-(4-((1S,4S)-2-oxa-5-azabicyclo[2.2.1]heptan-5-yl)-6,7-dihydro-5H-pyrano[2,3-d]pyrimidin-2-yl)phenyl)-3-ethylurea] | 22 nM | 1200 nM
3 | CC[C@H]1COCCN1c1nc(-c2ccc(Nc3nccc(=O)[nH]3)cc2)nc2c1COCC2 [Example 4, (S)-2-(4-(4-(3-ethylmorpholino)-7,8-dihydro-5H-pyrano[4,3-d]pyrimidin-2-yl)phenylamino)pyrimidin-4(3H)-one] | 1 nM | 30 nM
4 | CC[C@H]1COCCN1c1nc(-c2ccc(Nc3cccc(=O)[nH]3)cc2)nc2c1COCC2 [Example 5, (S)-6-(4-(4-(3-ethylmorpholino)-7,8-dihydro-5H-pyrano[4,3-d]pyrimidin-2-yl)phenylamino)pyridin-2(1H)-one] | 2 nM | 297 nM
5 | CCNC(=O)Nc1ccc(-c2nc3c(c(N4CCOC[C@@H]4C)n2)CCOC3)cc1 [Example 13 al, (S)-1-ethyl-3-(4-(4-(3-methylmorpholino)-6,8-dihydro-5H-pyrano[3,4-d]pyrimidin-2-yl)phenyl)urea] | 2 nM | 194 nM
6 | CCNC(=O)Nc1ccc(-c2nc3c(c(N4CCOCC4)n2)CCC2(CC2)O3)cc1 [Example 14, 1-ethyl-3-(4-(4′-morpholino-5′,6′-dihydrospiro[cyclopropane-1,7′-pyrano[2,3-d]pyrimidine]-2′-yl)phenyl)urea] | 3 nM | 84 nM
7 | C[C@H]1COCCN1c1nc(-c2ccc(NC(=O)NCCO)cc2)nc2c1COCC2 [Example 24, (S)-1-(2-hydroxyethyl)-3-(4-(4-(3-methylmorpholino)-7,8-dihydro-5H-pyrano[4,3-d]pyrimidin-2-yl)phenyl)urea] | 3 nM | 541 nM
8 | C[C@H]1COCCN1c1nc(-c2ccc(NC(=O)NC3COC3)cc2)nc2c1COCC2 [Example 25, (S)-1-(4-(4-(3-methylmorpholino)-7,8-dihydro-5H-pyrano[4,3-d]pyrimidin-2-yl)phenyl)-3-(oxetan-3-yl)urea] | 13 nM | 1500 nM
9 | C[C@H]1COCCN1c1nc(-c2ccc(NC(=O)NC3CCC3)cc2)nc2c1COCC2 [Example 26, (S)-1-cyclobutyl-3-(4-(4-(3-methylmorpholino)-7,8-dihydro-5H-pyrano[4,3-d]pyrimidin-2-yl)phenyl)urea] | 14 nM | 1600 nM
10 | Cc1nnc(NC(=O)Nc2ccc(-c3nc4c(c(N5CCOC[C@@H]5C)n3)COCC4)cc2)o1 [Example 27, (S)-1-(5-methyl-1,3,4-oxadiazol-2-yl)-3-(4-(4-(3-methylmorpholino)-7,8-dihydro-5H-pyrano[4,3-d]pyrimidin-2-yl)phenyl)urea] | 26 nM | 313 nM
11 | C[C@H]1COCCN1c1nc(-c2ccc(Nc3nccc(=O)[nH]3)cc2)nc2c1COCC2 [Example 28, (S)-2-(4-(4-(3-methylmorpholino)-7,8-dihydro-5H-pyrano[4,3-d]pyrimidin-2-yl)phenylamino)pyrimidin-4(3H)-one] | 2 nM | 194 nM
12 | C[C@H]1COCCN1c1nc(-c2ccc(Nc3cccc(=O)[nH]3)cc2)nc2c1COCC2 [Example 29, (S)-6-(4-(4-(3-methylmorpholino)-7,8-dihydro-5H-pyrano[4,3-d]pyrimidin-2-yl)phenylamino)pyridin-2(1H)-one] | 5 nM | 341 nM
13 | C[C@H]1COCCN1c1nc(-c2ccc(NC(=O)Nc3ccn(C)n3)cc2)nc2c1CCCO2 [Example 30, (S)-1-(1-methyl-1H-pyrazol-3-yl)-3-(4-(4-(3-methylmorpholino)-6,7-dihydro-5H-pyrano[2,3-d]pyrimidin-2-yl)phenyl)urea] | 1 nM | 172 nM
14 | C[C@H]1COCCN1c1nc(-c2ccc(NC(=O)Nc3cnn(C)c3)cc2)nc2c1CCCO2 [Example 31, (S)-1-(1-methyl-1H-pyrazol-4-yl)-3-(4-(4-(3-methylmorpholino)-6,7-dihydro-5H-pyrano[2,3-d]pyrimidin-2-yl)phenyl)urea] | 2 nM | 57 nM
15 | C[C@H]1COCCN1c1nc(-c2ccc(NC(=O)NC3COC3)cc2)nc2c1CCCO2 [Example 32, (S)-1-(4-(4-(3-methylmorpholino)-6,7-dihydro-5H-pyrano[2,3-d]pyrimidin-2-yl)phenyl)-3-(oxetan-3-yl)urea] | 4 nM | 325 nM
16 | C[C@H]1COCCN1c1nc(-c2ccc(NC(=O)NCCO)cc2)nc2c1CCCO2 [Example 33, (S)-1-(2-hydroxyethyl)-3-(4-(4-(3-methylmorpholino)-6,7-dihydro-5H-pyrano[2,3-d]pyrimidin-2-yl)phenyl)urea] | 1 nM | 111 nM
17 | C[C@H]1COCCN1c1nc(-c2ccc(Nc3nccc(=O)[nH]3)cc2)nc2c1CCCO2 [Example 34, (S)-2-(4-(4-(3-methylmorpholino)-6,7-dihydro-5H-pyrano[2,3-d]pyrimidin-2-yl)phenylamino)pyrimidin-4(3H)-one] | 1 nM | 45 nM
18 | C[C@H]1COCCN1c1nc(-c2ccc(Nc3cccc(=O)[nH]3)cc2)nc2c1CCCO2 [Example 35, (S)-6-(4-(4-(3-methylmorpholino)-6,7-dihydro-5H-pyrano[2,3-d]pyrimidin-2-yl)phenylamino)pyridin-2(1H)-one] | 2 nM | 236 nM
19 | O=c1ccnc(Nc2ccc(-c3nc4c(c(N5CCOCC5)n3)CCC3(CC3)O4)cc2)[nH]1 [Example 42, 2-(4-(4′-morpholino-5′,6′-dihydrospiro[cyclopropane-1,7′-pyrano[2,3-d]pyrimidine]-2′-yl)phenylamino)pyrimidin-4(3H)-one] | 1 nM | 56 nM
20 | O=C(Nc1ccc(-c2nc3c(c(N4CCOCC4)n2)CCC2(CC2)O3)cc1)NC1COC1 [Example 43, 1-(4-(4′-morpholino-5′,6′-dihydrospiro[cyclopropane-1,7′-pyrano[2,3-d]pyrimidine]-2′-yl)phenyl)-3-(oxetan-3-yl)urea] | 6 nM | 392 nM
21 | Cn1ccc(NC(=O)Nc2ccc(-c3nc4c(c(N5CCOCC5)n3)CCC3(CC3)O4)cc2)n1 [Example 44, 1-(1-methyl-1H-pyrazol-3-yl)-3-(4-(4′-morpholino-5′,6′-dihydrospiro[cyclopropane-1,7′-pyrano[2,3-d]pyrimidine]-2′-yl)phenyl)urea] | 2 nM | 329 nM
22 | Cn1cc(NC(=O)Nc2ccc(-c3nc4c(c(N5CCOCC5)n3)CCC3(CC3)O4)cc2)cn1 [Example 45, 1-(1-methyl-1H-pyrazol-4-yl)-3-(4-(4′-morpholino-5′,6′-dihydrospiro[cyclopropane-1,7′-pyrano[2,3-d]pyrimidine]-2′-yl)phenyl)urea] | 2 nM | 102 nM
23 | CCNC(=O)Nc1ccc(-c2nc3c(c(N4CCOC[C@@H]4C)n2)CCC2(CC2)O3)cc1 [Example 49, (S)-1-ethyl-3-(4-(4′-(3-methylmorpholino)-5′,6′-dihydrospiro[cyclopropane-1,7′-pyrano[2,3-d]pyrimidine]-2′-yl)phenyl)urea] | 0.3 nM | 67 nM
24 | C[C@H]1COCCN1c1nc(-c2ccc(NC(=O)Nc3cnn(C)c3)cc2)nc2c1CCC1(CC1)O2 [Example 50, (S)-1-(1-methyl-1H-pyrazol-4-yl)-3-(4-(4′-(3-methylmorpholino)-5′,6′-dihydrospiro[cyclopropane-1,7′-pyrano[2,3-d]pyrimidine]-2′-yl)phenyl)urea] | 1 nM | 29 nM
25 | C[C@H]1COCCN1c1nc(-c2ccc(NC(=O)NC3COC3)cc2)nc2c1CCC1(CC1)O2 [Example 51, (S)-1-(4-(4′-(3-methylmorpholino)-5′,6′-dihydrospiro[cyclopropane-1,7′-pyrano[2,3-d]pyrimidine]-2′-yl)phenyl)-3-(oxetan-3-yl)urea] | 1 nM | 77 nM
